Source: ChEMBL document CHEMBL4422610, “HDAC as onco target: Reviewing the synthetic approaches with SAR study of their inhibitors” (Eur J Med Chem, 2018)

How the values were obtained:
Histone deacetylase 1 [1] = biological target: T1, Histone deacetylase 1 (Homo sapiens, UniProt Q13547); assay: Inhibition of HDAC1 (unknown origin) using (FAM)-labeled acetylated peptide as substrate measured after 17 hrs by fluorescence assay
[2] = biological target: T2, Protein deacetylase HDAC6 (Homo sapiens, UniProt Q9UBN7); assay: Inhibition of recombinant full-length human N-terminal GST-tagged HDAC6 expressed in baculovirus infected Sf9 insect cells using fluorescent-labelled Arg-His-Lys-Lys(Ac) as substrate measured after 2 hrs by fluorescence assay
T2 sequence (Q9UBN7 whole entry): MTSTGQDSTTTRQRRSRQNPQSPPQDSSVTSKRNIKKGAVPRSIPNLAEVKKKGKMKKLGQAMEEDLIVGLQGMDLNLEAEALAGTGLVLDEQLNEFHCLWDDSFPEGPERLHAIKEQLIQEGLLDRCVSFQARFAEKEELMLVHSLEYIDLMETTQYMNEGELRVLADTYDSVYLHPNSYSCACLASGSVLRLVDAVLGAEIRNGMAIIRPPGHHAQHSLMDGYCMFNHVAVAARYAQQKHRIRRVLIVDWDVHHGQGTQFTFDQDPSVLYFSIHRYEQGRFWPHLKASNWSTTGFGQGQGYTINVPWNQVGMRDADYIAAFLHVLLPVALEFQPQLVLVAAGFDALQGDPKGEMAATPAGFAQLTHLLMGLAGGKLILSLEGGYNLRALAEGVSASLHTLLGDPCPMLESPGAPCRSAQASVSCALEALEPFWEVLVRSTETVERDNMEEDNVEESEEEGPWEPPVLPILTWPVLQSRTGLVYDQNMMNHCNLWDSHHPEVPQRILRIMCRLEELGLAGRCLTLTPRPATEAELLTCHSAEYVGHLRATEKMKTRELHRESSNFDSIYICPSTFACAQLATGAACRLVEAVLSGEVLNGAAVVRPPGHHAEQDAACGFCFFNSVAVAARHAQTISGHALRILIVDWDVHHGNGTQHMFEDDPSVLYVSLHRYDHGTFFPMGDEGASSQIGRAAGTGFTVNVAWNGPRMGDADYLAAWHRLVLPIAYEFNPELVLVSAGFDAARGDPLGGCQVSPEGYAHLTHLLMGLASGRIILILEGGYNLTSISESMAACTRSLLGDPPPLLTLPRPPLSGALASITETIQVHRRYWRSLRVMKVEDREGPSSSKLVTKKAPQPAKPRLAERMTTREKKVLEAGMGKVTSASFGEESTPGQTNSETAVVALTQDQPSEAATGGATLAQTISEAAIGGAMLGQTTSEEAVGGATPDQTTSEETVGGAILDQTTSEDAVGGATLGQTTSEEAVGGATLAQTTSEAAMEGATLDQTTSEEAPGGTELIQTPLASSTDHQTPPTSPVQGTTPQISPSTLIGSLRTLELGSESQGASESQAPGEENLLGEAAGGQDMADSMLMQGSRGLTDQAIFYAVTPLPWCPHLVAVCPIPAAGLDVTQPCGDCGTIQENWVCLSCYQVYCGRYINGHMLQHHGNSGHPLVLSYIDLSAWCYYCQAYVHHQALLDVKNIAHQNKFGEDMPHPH

[3] = biological target: T2, Protein deacetylase HDAC6; assay: Inhibition of HDAC6 in human HeLa nuclear extract using Boc-Lys(acetyl)-AMC as substrate measured after 30 mins by fluorescence assay; assay type: cell-free
Histone deacetylase 8 [4] = biological target: T3, Histone deacetylase 8 (Homo sapiens, UniProt Q9BY41); assay: Inhibition of HDAC8 in human HeLa nuclear extract using Boc-Lys(acetyl)-AMC as substrate measured after 30 mins by fluorescence assay; assay type: cell-free
T3 sequence (Q9BY41 whole entry): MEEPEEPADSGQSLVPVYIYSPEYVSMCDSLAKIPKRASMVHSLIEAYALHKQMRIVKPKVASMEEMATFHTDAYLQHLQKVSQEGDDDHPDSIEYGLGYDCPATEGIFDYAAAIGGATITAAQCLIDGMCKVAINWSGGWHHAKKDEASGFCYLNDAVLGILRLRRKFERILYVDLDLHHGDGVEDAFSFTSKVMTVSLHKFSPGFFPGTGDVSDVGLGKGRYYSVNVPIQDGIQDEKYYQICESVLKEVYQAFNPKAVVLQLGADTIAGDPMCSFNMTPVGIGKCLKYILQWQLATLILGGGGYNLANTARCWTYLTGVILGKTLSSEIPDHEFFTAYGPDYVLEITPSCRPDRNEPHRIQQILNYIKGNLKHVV

Histone deacetylase 8 [5] = biological target: T3, Histone deacetylase 8; assay: Inhibition of HDAC8 (unknown origin)
[6] = biological target: T2, Protein deacetylase HDAC6; assay: Inhibition of HDAC6 (unknown origin)
Histone deacetylase 1 [7] = biological target: T1, Histone deacetylase 1; assay: Inhibition of HDAC1 (unknown origin)
Histone deacetylase 8 [8] = biological target: T3, Histone deacetylase 8; assay: Inhibition of HDAC8 (unknown origin) expressed in Escherichia coli using BML-KI-178 as substrate preincubated up to 3 hrs and measured after 35 mins by fluorescence assay
[9] = biological target: Histone deacetylase 3/Nuclear receptor corepressor 2 (HDAC3/NCoR2) (Homo sapiens, UniProt O15379); assay: Inhibition of human recombinant full length C-terminal His-tagged HDAC3 (1 to 428 residues)/N-terminal GST-tagged NCOR2 (395 to 489 residues) expressed in insect cells using Boc-l-Lys(Ac)-AMC as substrate preincubated up to 3 hrs and measured after 35 mins by fluorescence assay
Sequence of Histone deacetylase 3/Nuclear receptor corepressor 2 (HDAC3/NCoR2) (O15379 whole entry, the tested form may be a part): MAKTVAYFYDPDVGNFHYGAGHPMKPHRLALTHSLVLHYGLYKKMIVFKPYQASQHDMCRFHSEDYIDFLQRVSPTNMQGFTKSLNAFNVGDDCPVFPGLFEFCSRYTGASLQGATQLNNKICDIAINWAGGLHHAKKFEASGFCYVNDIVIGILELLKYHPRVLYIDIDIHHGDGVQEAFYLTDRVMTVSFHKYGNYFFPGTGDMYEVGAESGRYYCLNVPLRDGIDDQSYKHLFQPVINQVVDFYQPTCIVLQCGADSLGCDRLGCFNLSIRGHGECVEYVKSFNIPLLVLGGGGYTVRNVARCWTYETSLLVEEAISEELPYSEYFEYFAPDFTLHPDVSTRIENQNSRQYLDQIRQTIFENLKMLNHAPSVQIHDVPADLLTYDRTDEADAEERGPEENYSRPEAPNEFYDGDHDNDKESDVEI
Sequence of Histone deacetylase 3/Nuclear receptor corepressor 2 (HDAC3/NCoR2) (Q9Y618 whole entry, further chain, the tested form may be a part): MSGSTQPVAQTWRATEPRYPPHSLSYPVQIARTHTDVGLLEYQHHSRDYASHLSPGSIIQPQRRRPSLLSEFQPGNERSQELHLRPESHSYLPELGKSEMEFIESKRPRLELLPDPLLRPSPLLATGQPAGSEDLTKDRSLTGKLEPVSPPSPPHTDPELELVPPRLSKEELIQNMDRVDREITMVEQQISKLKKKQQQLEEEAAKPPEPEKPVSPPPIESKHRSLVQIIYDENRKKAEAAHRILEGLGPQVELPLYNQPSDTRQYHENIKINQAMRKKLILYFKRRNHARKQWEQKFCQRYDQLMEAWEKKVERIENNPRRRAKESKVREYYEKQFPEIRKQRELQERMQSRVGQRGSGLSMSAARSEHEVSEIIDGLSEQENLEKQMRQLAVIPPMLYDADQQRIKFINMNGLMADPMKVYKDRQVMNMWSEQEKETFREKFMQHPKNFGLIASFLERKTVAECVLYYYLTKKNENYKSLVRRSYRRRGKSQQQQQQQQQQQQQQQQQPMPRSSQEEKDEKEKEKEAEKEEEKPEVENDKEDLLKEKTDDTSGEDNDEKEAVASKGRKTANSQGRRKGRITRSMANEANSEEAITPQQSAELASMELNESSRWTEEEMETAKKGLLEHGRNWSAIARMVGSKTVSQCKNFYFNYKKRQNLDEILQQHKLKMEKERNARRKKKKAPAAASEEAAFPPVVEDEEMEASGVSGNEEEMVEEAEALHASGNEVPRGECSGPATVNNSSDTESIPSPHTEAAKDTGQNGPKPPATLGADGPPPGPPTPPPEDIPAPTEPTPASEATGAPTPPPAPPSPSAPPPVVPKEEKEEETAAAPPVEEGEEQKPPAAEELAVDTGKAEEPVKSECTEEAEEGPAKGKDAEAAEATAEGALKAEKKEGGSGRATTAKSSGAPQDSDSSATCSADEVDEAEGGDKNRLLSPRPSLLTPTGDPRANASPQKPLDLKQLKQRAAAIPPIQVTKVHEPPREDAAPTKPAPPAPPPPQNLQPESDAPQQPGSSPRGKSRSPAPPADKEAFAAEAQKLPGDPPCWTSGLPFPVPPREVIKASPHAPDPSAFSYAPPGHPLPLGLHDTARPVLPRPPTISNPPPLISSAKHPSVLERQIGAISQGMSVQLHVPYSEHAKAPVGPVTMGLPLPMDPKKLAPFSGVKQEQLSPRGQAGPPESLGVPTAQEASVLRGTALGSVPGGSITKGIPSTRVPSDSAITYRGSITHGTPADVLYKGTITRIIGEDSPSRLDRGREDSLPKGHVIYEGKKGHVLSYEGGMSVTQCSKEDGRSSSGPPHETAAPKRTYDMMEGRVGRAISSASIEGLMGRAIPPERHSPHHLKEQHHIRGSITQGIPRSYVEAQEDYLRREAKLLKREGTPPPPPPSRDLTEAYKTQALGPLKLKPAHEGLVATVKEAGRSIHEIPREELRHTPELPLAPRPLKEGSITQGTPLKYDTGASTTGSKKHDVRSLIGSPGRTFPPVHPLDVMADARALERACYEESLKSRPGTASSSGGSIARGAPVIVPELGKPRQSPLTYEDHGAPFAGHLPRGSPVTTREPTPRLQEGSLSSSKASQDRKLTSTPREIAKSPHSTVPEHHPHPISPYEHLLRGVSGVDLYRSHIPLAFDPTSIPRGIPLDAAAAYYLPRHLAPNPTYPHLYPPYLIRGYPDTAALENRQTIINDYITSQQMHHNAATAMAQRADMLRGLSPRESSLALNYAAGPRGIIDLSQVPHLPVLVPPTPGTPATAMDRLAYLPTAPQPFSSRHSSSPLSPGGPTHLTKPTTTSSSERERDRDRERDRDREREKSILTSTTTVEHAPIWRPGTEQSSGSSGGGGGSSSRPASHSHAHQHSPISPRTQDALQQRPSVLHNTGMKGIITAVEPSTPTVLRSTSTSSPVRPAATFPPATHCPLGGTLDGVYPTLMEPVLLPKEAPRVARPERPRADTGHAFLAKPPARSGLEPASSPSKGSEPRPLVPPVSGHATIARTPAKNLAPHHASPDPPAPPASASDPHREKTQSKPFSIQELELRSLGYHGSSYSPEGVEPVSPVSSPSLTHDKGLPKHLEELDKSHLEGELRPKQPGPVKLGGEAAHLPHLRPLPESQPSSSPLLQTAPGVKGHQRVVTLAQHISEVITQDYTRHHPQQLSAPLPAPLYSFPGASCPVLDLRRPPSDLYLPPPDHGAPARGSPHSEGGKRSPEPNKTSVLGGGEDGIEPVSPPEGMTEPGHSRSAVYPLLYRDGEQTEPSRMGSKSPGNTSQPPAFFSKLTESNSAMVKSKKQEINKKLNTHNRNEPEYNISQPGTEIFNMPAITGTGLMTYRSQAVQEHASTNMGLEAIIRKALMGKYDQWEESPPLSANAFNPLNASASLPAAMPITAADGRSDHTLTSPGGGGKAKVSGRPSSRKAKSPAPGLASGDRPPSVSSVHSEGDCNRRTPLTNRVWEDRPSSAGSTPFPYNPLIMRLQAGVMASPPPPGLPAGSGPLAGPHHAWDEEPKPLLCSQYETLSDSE

Histone deacetylase 1 [10] = biological target: T1, Histone deacetylase 1; assay: Inhibition of recombinant human FLAG/His-tagged HDAC1 expressed in baculovirus expression system using Boc-l-Lys(Ac)-AMC as substrate preincubated up to 3 hrs and measured after 35 mins by fluorescence assay
Histone deacetylase 2 = Histone deacetylase 2 (Homo sapiens, UniProt Q92769)
Sequence of Histone deacetylase 2 (Q92769 whole entry): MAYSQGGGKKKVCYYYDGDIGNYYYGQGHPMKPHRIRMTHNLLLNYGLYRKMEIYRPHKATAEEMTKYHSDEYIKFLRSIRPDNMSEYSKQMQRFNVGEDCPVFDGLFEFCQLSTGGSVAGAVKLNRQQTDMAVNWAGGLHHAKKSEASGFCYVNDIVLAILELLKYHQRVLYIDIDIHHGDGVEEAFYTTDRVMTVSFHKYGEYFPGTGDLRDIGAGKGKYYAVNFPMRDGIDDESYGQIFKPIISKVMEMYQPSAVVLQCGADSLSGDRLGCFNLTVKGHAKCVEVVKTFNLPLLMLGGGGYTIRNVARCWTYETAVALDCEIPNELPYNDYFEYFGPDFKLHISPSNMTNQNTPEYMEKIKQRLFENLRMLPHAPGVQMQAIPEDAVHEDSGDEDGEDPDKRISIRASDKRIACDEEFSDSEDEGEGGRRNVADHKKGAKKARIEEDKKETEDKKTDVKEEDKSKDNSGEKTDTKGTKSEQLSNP

Histone deacetylase [11] = assay type: cell-based, Homo sapiens; details: hela
Histone deacetylase [12] = assay type: cell-based, Homo sapiens; details: hela; remark: listed apart in the source
MDA-MB-231 = assay: cells; details: Homo sapiens
MCF7 = assay: cells; details: Homo sapiens, MCF7, 48 h
Histone deacetylase 4 = Histone deacetylase 4 (Homo sapiens, UniProt P56524); assay: Inhibition of recombinant human HDAC4 expressed in HEK293T cells using Ac-KGLGK(Ac)-MCA as substrate measured after 30 mins by fluorescence assay
Sequence of Histone deacetylase 4 (P56524 whole entry): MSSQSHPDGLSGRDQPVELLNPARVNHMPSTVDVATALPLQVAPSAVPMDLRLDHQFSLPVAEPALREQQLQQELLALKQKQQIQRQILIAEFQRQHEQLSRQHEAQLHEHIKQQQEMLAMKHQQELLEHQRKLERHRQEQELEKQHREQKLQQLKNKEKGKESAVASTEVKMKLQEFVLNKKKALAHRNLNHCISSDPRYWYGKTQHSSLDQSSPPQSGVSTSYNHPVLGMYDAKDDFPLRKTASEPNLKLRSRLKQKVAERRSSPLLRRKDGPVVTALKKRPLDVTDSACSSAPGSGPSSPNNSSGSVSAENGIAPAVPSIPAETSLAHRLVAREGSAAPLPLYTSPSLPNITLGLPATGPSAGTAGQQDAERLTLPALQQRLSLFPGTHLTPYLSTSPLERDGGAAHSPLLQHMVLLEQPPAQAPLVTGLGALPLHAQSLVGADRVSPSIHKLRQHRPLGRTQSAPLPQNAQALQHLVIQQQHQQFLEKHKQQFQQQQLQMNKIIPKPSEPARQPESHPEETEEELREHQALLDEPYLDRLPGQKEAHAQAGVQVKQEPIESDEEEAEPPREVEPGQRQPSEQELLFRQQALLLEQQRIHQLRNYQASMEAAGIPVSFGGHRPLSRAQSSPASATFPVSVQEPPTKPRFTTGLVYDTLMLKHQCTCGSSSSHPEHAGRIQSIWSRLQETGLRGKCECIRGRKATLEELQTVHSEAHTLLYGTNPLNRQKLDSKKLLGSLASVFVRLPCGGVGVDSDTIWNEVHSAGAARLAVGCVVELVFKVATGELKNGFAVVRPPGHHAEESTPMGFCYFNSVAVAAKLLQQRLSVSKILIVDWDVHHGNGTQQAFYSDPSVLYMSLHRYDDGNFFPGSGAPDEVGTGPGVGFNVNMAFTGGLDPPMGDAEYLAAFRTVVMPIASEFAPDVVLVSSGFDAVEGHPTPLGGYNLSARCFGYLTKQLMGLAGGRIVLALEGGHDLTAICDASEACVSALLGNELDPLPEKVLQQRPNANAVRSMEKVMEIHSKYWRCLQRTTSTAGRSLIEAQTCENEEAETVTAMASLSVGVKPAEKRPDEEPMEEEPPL

[13] = biological target: T4, Protein deacetylase HDAC6 (Mus musculus, UniProt Q9Z2V5); assay: Inhibition of recombinant mouse HDAC6 expressed in HEK293T cells using Ac-KGLGK(Ac)-MCA as substrate measured after 30 mins by fluorescence assay
T4 sequence (Q9Z2V5 whole entry): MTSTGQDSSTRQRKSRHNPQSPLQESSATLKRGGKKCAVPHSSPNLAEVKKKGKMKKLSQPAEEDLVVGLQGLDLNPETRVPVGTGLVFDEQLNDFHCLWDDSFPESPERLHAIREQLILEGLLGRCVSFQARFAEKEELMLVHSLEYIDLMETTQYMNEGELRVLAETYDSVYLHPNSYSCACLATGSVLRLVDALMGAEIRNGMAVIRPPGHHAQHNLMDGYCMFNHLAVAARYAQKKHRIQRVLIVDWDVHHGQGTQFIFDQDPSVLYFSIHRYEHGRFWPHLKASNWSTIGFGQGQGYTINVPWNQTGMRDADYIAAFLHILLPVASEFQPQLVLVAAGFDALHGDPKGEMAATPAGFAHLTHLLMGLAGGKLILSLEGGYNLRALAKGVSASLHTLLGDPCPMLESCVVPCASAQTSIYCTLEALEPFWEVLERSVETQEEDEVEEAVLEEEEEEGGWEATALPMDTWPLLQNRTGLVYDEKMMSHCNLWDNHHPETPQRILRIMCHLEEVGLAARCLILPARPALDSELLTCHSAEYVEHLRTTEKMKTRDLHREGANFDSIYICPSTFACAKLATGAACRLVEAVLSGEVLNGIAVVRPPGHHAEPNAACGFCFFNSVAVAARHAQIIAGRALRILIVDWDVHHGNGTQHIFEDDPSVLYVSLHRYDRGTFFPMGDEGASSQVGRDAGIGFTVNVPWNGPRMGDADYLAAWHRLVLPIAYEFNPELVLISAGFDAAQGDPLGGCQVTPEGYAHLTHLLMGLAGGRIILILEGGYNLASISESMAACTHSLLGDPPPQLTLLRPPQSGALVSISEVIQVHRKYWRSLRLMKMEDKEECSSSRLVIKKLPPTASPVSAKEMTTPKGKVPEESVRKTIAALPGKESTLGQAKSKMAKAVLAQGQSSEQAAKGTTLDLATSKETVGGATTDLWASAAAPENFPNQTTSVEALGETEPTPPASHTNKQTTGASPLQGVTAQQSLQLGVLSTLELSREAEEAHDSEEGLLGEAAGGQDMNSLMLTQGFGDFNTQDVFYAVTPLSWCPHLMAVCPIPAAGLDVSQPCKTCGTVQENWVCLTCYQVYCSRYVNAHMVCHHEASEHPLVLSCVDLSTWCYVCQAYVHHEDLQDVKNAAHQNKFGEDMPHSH

HeLa = assay: cells; details: Homo sapiens, 48 h
Histone deacetylase 1 [14] = biological target: T1, Histone deacetylase 1; assay: Inhibition of recombinant human HDAC1 expressed in HEK293T cells using Ac-KGLGK(Ac)-MCA as substrate measured after 30 mins by fluorescence assay
K562 = assay: cells; details: Homo sapiens, K562, 48 h

T1 sequence (Q13547 whole entry): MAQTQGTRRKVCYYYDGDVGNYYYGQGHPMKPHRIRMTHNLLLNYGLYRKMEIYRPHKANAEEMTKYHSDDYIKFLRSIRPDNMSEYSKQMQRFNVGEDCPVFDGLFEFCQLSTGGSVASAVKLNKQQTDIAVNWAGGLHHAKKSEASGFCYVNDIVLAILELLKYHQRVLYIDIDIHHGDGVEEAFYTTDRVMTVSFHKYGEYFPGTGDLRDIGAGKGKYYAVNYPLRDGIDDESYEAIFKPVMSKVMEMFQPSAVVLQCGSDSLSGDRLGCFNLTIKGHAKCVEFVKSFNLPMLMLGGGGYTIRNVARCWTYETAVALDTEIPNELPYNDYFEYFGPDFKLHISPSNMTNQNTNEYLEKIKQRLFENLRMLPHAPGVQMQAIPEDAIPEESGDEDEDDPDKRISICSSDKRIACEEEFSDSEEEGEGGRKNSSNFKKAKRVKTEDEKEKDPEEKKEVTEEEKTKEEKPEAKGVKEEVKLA

`Nc1ccccc1NC(=O)CCCCCCC(=O)Nc1cccc(-c2cn(-c3ccccc3)nn2)c1` showed an IC50 (Histone deacetylase 1 [1]) of over 30 µM.
Work on `Cc1c(CN(C)C)c2ccccc2n1-c1ccc(C(=O)NO)cc1` yielded an IC50 [2] of 1.25 nM.
In the case of `CNCCOc1no[n+]([O-])c1S(=O)(=O)c1ccccc1`, the IC50 [3] is reported as 160 nM and the IC50 (Histone deacetylase 8 [4]) is reported as 260 nM.
`C[C@]12CC[C@@H]3c4ccc(O)cc4CC[C@H]3[C@@H]1CC[C@@]2(O)c1cn(CCCCCCC(=O)NO)nn1` showed an IC50 (Histone deacetylase 8 [5]) of 4 µM, an IC50 [6] of 32 nM and an IC50 (Histone deacetylase 1 [7]) of 75 nM.
With `O=C(CCCCCn1cc(-c2ccc(C(=O)c3c(-c4ccc(O)cc4)sc4cc(O)ccc34)cc2)nn1)NO` the IC50 (Histone deacetylase 8 [8]) was 23.5 µM, the IC50 [9] was 5740 nM and the IC50 (Histone deacetylase 1 [10]) was 839 nM. For the same compound, the IC50 (Histone deacetylase 2) was 19200 nM.
Work on `O=C(/C=C/c1ccc(C(=O)NCCCOc2no[n+]([O-])c2S(=O)(=O)c2ccccc2)cc1)NO` yielded an IC50 [3] of 230 nM and an IC50 (Histone deacetylase 8 [4]) of 460 nM.
With `C[C@]12CC[C@@H]3c4ccc(O)cc4CC[C@H]3[C@@H]1CC[C@@]2(O)c1cn(CCCCC(=O)NO)nn1` the IC50 (Histone deacetylase 8 [5]) was 11 µM, the IC50 [6] was 8 nM and the IC50 (Histone deacetylase 1 [7]) was 15 nM.
`CCn1cnc(-c2ccc(OC)cc2)c1-c1ccc(/C=C/C(=O)NO)cc1` was tested, and the IC50 (Histone deacetylase [11]) was 0.036 µM and the IC50 (Histone deacetylase [12]) was 0.504 µM.
For `O=C(CCCCCCC(=O)Nc1ccccc1)NO` [VORINOSTAT], the IC50 (MDA-MB-231) was 2140 nM.
In the case of `CC1CCCC2(C1)NC(=O)[C@H](CCCCCC(=O)NO)NC(=O)[C@H]1CCCN1C(=O)[C@H](Cc1ccccc1)NC2=O` (stereo not given in full), the IC50 (MCF7) is reported as 26 nM, the IC50 (Histone deacetylase 4) is reported as 14 nM and the IC50 [13] is reported as 160 nM. For the same compound, the IC50 (HeLa) was 48 nM, the IC50 (Histone deacetylase 1 [14]) was 15 nM and the IC50 (K562) was 104 nM.
In the case of `O=C(CCCCCCCNC(=O)c1c(-c2ccc(O)cc2)sc2cc(O)ccc12)NO`, the IC50 (Histone deacetylase 8 [8]) is reported as 0.4 µM, the IC50 [9] is reported as 128 nM and the IC50 (Histone deacetylase 1 [10]) is reported as 168 nM. For the same compound, the IC50 (Histone deacetylase 2) was 665 nM.
With `CC(CNC(=O)c1ccc(/C=C/C(=O)NO)cc1)Oc1no[n+]([O-])c1S(=O)(=O)c1ccccc1` (stereo not given) the IC50 [3] was 280 nM and the IC50 (Histone deacetylase 8 [4]) was 420 nM.
Compound `O=C(CCCCCCNC(=O)c1c(-c2ccc(O)cc2)sc2cc(O)ccc12)NO` has an IC50 (Histone deacetylase 8 [8]) of 0.719 µM, an IC50 [9] of 214 nM and an IC50 (Histone deacetylase 1 [10]) of 596 nM. The IC50 (Histone deacetylase 2) was 2440 nM.
With `CCN(CC)c1ccc(C(=O)NO)cc1` the IC50 [2] was 6280 nM.
For `CC1CCCCC12NC(=O)[C@H](CCCCCC(=O)NO)NC(=O)[C@H]1CCCN1C(=O)[C@H](Cc1ccccc1)NC2=O` (stereo not given in full), the IC50 (MCF7) was 31 nM, the IC50 (Histone deacetylase 4) was 6 nM and the IC50 [13] was 130 nM. It also gave an IC50 (HeLa) of 309 nM, an IC50 (Histone deacetylase 1 [14]) of 10 nM and an IC50 (K562) of 876 nM.
`O=C(NO)c1ccc(N2CCCC2)cc1` gave an IC50 [2] of 540 nM.
In the case of `O=C(CCCCCCn1cc(-c2ccc(C(=O)c3c(-c4ccc(O)cc4)sc4cc(O)ccc34)cc2)nn1)NO`, the IC50 (Histone deacetylase 8 [8]) is reported as 29.9 µM, the IC50 [9] is reported as 748 nM and the IC50 (Histone deacetylase 1 [10]) is reported as 1030 nM. The IC50 (Histone deacetylase 2) was 1820 nM.
Work on `C[C@]12CC[C@@H]3c4ccc(O)cc4CC[C@H]3[C@@H]1CC[C@@]2(O)c1cn(CCCCCCCC(=O)NO)nn1` yielded an IC50 (Histone deacetylase 8 [5]) of 0.45 µM, an IC50 [6] of 13 nM and an IC50 (Histone deacetylase 1 [7]) of 28 nM.
